The values that follow come from patent US20070213326A1, “SUBSTITUTED INDOLE COMPOUNDS AND THEIR USE AS 5-HT6 RECEPTOR MODULATORS” (LABORATORIOS DEL DR. ESTEVE S.A., priority 2004, published 2007).

Structures can show the parent of a compound that is named as a salt.

T1 sequence (P50406 whole entry): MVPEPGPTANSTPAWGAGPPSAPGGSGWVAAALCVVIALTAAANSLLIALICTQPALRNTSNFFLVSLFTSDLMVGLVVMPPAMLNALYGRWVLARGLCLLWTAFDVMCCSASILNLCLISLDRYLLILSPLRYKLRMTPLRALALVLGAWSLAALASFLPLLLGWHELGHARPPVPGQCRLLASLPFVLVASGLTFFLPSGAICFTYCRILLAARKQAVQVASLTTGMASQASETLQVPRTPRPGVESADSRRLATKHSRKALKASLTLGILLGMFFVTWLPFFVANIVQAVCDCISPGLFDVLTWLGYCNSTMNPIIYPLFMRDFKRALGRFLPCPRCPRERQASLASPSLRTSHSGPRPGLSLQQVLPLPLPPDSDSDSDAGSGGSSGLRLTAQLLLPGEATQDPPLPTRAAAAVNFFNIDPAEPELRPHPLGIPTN

One data set concerns the target T1, 5HT6-human recombinant receptor (Homo sapiens, UniProt P50406).
T1 construct: purchased Receptor Biology; host or cells: HEK-293 cells (membranes)
Kind of data set: Binding to serotonin receptor 5-HT6 ([H]-LSD radioligand, HEK-293 cell membranes). The note with it: membranes of HEK-293 cells expressing 5HT6-human recombinant receptor; [H]-LSD 2.7 nM; 60 minutes at 37° C. The protocol: I) Binding to Serotonin Receptor 5-HT6
Cell membranes of HEK-293 cells expressing the 5HT6-human recombinant receptor were supplied by Receptor Biology. In said membranes the receptor concentration is 2.18 pmol/mg protein and the protein concentration is 9.17 mg/ml. The experimental protocol follows the method of B. L. Roth et al. [B. L. Roth, S. C. Craigo, M. S. Choudhary, A. Uluer, F. J. Monsma, Y. Shen, H. Y. Meltzer, D. R. Sibley: Binding of Typical and Atypical Antipsychotic Agents to 5-Hydroxytryptamine-6 and Hydroxytryptamine-7 Receptors. The Journal of Pharmacology and Experimental Therapeutics, 1994, 268, 1403] with the following slight changes. The respective part of the literature description is hereby incorporated by reference and forms part of the disclosure.
The commercial membrane is diluted (1:40 dilution) with the binding buffer: 50 mM Tris-HCl, 10 mM MgCl2, 0.5 mM EDTA (pH 7.4). The radioligand used is [H]-LSD at a concentration of 2.7 nM with a final volume of 200 μl. Incubation is initiated by adding 100 μl of membrane suspension, (≈22.9 μg membrane protein), and is prolonged for 60 minutes at a temperature of 37° C. The incubation is ended by fast filtration in a Brandel Cell Harvester through fiber glass filters made by Schleicher & Schuell G F 3362 pretreated with a solution of polyethylenimine at 0.5%. The filters are washed three times with three milliliters of buffer Tris-HCl 50 mM pH 7.4. The filters are transferred to flasks and 5 ml of Ecoscint H liquid scintillation cocktail are added to each flask. The flasks are allowed to reach equilibrium for several hours before counting with a Wallac Winspectral 1414 scintillation counter. Non-specific binding is determined in the presence of 100 μM of serotonin. Tests were made in triplicate. The inhibition constants (Ki, nM) were calculated by non-linear regression analysis using the program EBDA/LIGAND described in Munson and Rodbard, Analytical Biochemistry, 1980, 107, 220, the respective part of which is hereby incorporated by reference and forms part of the disclosure.
The binding of the substituted indole compounds to the 5-HT6 receptor was determined as described above.
Regarding `CN(C)CCc1c[nH]c2cc(NS(=O)(=O)c3ccc4ccccc4c3)ccc12` [Example 11, N-(3-(2-(dimethylamino)ethyl)-1H-indol-6-yl)naphthalene-2-sulfonamide], the Ki was 0.0426 µM.
Consider `CCN(CC)CCc1c[nH]c2cc(NS(=O)(=O)c3c(Cl)nc4sccn34)ccc12` [Example 4, 6-chloro-N-(3-(2-(diethylamino)ethyl)-1H-indol-6-yl)imidazo[2,1-b]thiazole-5-sulfonamide], for which the Ki worked out at 0.0428 µM.
Take `CN(C)CCc1c[nH]c2cc(NS(=O)(=O)c3cccc4ccccc34)ccc12` [Example 12, N-(3-(2-(dimethylamino)ethyl)-1H-indol-6-yl)naphthalene-1-sulfonamide]: the inhibition constant Ki was 0.0311 µM.
Same read-out and setting: the figure for `CN(C)CCc1c[nH]c2cc(NS(=O)(=O)c3c(Cl)nc4sccn34)ccc12` [Example 13, 6-chloro-N-(3-(2-(dimethylamino)ethyl)-1H-indol-6-yl)imidazo[2,1-b]thiazole-5-sulfonamide] is 0.0073 µM.

Tested on in a further data set: not given
Assay: not given
Conditions: not given
As for `Cc1c(S(=O)(=O)Nc2cccc3[nH]cc(CCN(C)C)c23)sc2ccc(Cl)cc12`, the melting point fell in the range of 235 to 236 °C.
In turn, `CN(C)CCc1c[nH]c2cc(NS(=O)(=O)c3ccc(-c4ccccc4)cc3)ccc12` yielded a melting point of 164 to 168 °C.
On the same count and under the same terms, then `CCN(CC)CCc1c[nH]c2cc(NS(=O)(=O)c3ccc(Oc4ccccc4)cc3)ccc12`, with 50 to 53 °C.
As for `CCN(CC)CCc1c[nH]c2cc(NS(=O)(=O)c3cc(Cl)c(Cl)s3)ccc12`, the melting point fell in the range of 200 to 205 °C.
Turning to `CN(C)CCc1c[nH]c2cc(NS(=O)(=O)c3cccc4c(Cl)cccc34)ccc12`, the melting point lay in the range of 187 to 190 °C.
The compound `CN(C)CCc1c[nH]c2cccc(NS(=O)(=O)c3cccc4ccccc34)c12` returned a melting point of 223 to 225 °C.
Compound `CN(C)CCc1c[nH]c2cccc(NS(=O)(=O)CCc3cccc4ccccc34)c12` (as salt: TFA) showed a melting point of 170 to 172 °C.
In turn, `CCN(CC)CCc1c[nH]c2cc(NS(=O)(=O)c3ccc(-c4ccccc4)cc3)ccc12` registered a melting point of 81 to 85 °C.
The same measure, in the same setting: the figure for `CCOC(CN(CC)CC)c1c[nH]c2c(N(S(=O)(=O)c3sc4ccc(Cl)cc4c3C)S(=O)(=O)c3sc4ccc(Cl)cc4c3C)cccc12` (stereo not shown) is 155 to 156 °C.
`CN(C)CCc1c[nH]c2cc(NS(=O)(=O)c3cc(Cl)cc(Cl)c3)ccc12` returned a melting point of 96 to 98 °C.
The compound `Cc1c(S(=O)(=O)Nc2cccc3c(CCN(C)C)c[nH]c23)sc2ccc(Cl)cc12` returned a melting point of 130 to 140 °C.
Consider `CN(C)CCc1c[nH]c2cc(NS(=O)(=O)c3ccc4ccccc4c3)ccc12` [Example 11, N-(3-(2-(dimethylamino)ethyl)-1H-indol-6-yl)naphthalene-2-sulfonamide], for which the melting point lay in the range of 150 to 151 °C.
On the same count and under the same terms, then `CN(C)CCc1c[nH]c2cc(N(S(=O)(=O)c3cc(Cl)cc(Cl)c3)S(=O)(=O)c3cc(Cl)cc(Cl)c3)ccc12`, with 103 to 107 °C; and `CN(C)CCc1c[nH]c2cccc(NS(=O)(=O)c3cc(Cl)cc(Cl)c3)c12`, with 212 to 215 °C; and `CN(C)CCc1c[nH]c2cc(N(S(=O)(=O)c3c(Cl)nc4sccn34)S(=O)(=O)c3c(Cl)nc4sccn34)ccc12`, with 210 °C.
`CCN(CC)CCc1c[nH]c2cc(NS(=O)(=O)c3cccc4ccccc34)ccc12` gave a melting point of 183 to 187 °C.
The compound `CN(C)CCc1c[nH]c2cccc(NS(=O)(=O)c3ccc(-c4ccccc4)cc3)c12` yielded a melting point of 182 to 184 °C.
For the compound `CCN(CC)CCc1c[nH]c2c(N(S(=O)(=O)c3sc4ccc(Cl)cc4c3C)S(=O)(=O)c3sc4ccc(Cl)cc4c3C)cccc12`, the melting point is 87 to 90 °C.
Still for that read-out and setting: the figure for `CCN(CC)CCc1c[nH]c2cc(NS(=O)(=O)c3ccc4ccccc4c3)ccc12` is 146 to 147 °C.
The compound `CCN(CC)CCc1c[nH]c2cc(NS(=O)(=O)c3c(Cl)nc4sccn34)ccc12` [Example 4, 6-chloro-N-(3-(2-(diethylamino)ethyl)-1H-indol-6-yl)imidazo[2,1-b]thiazole-5-sulfonamide] returned a melting point of 210 to 212 °C.
Same read-out and setting: the figure for `CN(C)CCc1c[nH]c2cccc(NS(=O)(=O)c3ccc4ccccc4c3)c12` is 165 to 168 °C; for `CN(C)CCc1c[nH]c2cccc(NS(=O)(=O)c3c(Cl)nc4sccn34)c12` it is 216 °C.
For `CCN(CC)CCc1c[nH]c2c(NS(=O)(=O)c3sc4ccc(Cl)cc4c3C)cccc12`, the melting point fell in the range of 79 to 84 °C.
In the case of `CN(C)CCc1c[nH]c2cccc(NS(=O)(=O)c3ccc4c(Cl)cccc4c3)c12`, the melting point fell in the range of 198 to 200 °C.
Regarding `CCOC(CN(C)C)c1c[nH]c2cc(N(S(=O)(=O)c3sc4ccc(Cl)cc4c3C)S(=O)(=O)c3sc4ccc(Cl)cc4c3C)ccc12` (stereo not shown), the melting point stood at 208 °C.
Same read-out and setting: the figure for `CCN(CC)CCc1c[nH]c2cc(NS(=O)(=O)c3cc(Cl)cc(Cl)c3)ccc12` is 79 to 85 °C.
The same measure, in the same setting: the figure for `CCOC(CN(C)C)c1c[nH]c2c(NS(=O)(=O)c3sc4ccc(Cl)cc4c3C)cccc12` (stereo not shown) is 145 °C; for `CN(C)CCc1c[nH]c2cc(NS(=O)(=O)CCc3cccc4ccccc34)ccc12` it is 90 °C; for `CN(C)CCc1c[nH]c2cccc(NS(=O)(=O)c3ccc(Oc4ccccc4)cc3)c12` it is 78 to 82 °C.
In turn, `CN(C)CCc1c[nH]c2cc(NS(=O)(=O)c3cc(Cl)c(Cl)s3)ccc12` yielded a melting point of 111 to 114 °C.
Same read-out and setting: the figure for `Cc1c(S(=O)(=O)N(c2cccc3c(CCN(C)C)c[nH]c23)S(=O)(=O)c2sc3ccc(Cl)cc3c2C)sc2ccc(Cl)cc12` is 110 to 120 °C.
With `CN(C)CCc1c[nH]c2cc(NS(=O)(=O)c3cccc4ccccc34)ccc12` [Example 12, N-(3-(2-(dimethylamino)ethyl)-1H-indol-6-yl)naphthalene-1-sulfonamide], the melting point fell in the range of 167 to 168 °C.
For the compound `CN(C)CCc1c[nH]c2cc(N(S(=O)(=O)c3cc(Cl)c(Cl)s3)S(=O)(=O)c3cc(Cl)c(Cl)s3)ccc12`, the melting point was 187 to 188 °C.
In the case of `CCN(CC)CCc1c[nH]c2cc(NS(=O)(=O)c3cccc4c(Cl)cccc34)ccc12`, the melting point was 86 to 90 °C.
Regarding `CN(C)CCc1c[nH]c2cc(NS(=O)(=O)c3c(Cl)nc4sccn34)ccc12` [Example 13, 6-chloro-N-(3-(2-(dimethylamino)ethyl)-1H-indol-6-yl)imidazo[2,1-b]thiazole-5-sulfonamide], the melting point is 138 to 142 °C.
The compound `CN(C)CCc1c[nH]c2cc(NS(=O)(=O)c3ccc(Oc4ccccc4)cc3)ccc12` showed a melting point of 170 to 171 °C.

For orientation: Ki means the equilibrium dissociation constant of an inhibitor or competing ligand from its target. The melting point is the temperature of the solid-liquid transition.
